Laboratory results as given in ChEMBL document CHEMBL4130419, “Novel chemotypes targeting tubulin at the colchicine binding site and unbiasing P-glycoprotein” (Eur J Med Chem, 2017).

test system: MCF7; experiment: Antiproliferative activity against human MCF7 cells after 72 hrs by MTT assay; type: functional, cell-based; conditions: MCF7, 72 h

SMILES | IC50
NC(=O)C1CCN(c2nc(CSc3ccccc3)nc3sc4c(c23)CCCC4)CC1 | 11 µM
Cc1ccc(NC(=O)Cn2c(C(F)(F)F)nc3ccccc32)c(-c2nc(C3CC3)n[nH]2)c1 | 13 µM
CCc1cccc(NC(=O)c2cnn3c(C(F)F)cc(-c4ccc(C)cc4)nc23)c1 | 9.2 µM
O=C(Cn1cc(CNC2(c3ccccc3F)CCCC2)c2ccccc21)NC1CC1 | 29 µM
CSc1ccccc1NC(=O)c1cnn2c(C(F)F)cc(-c3ccc(C)cc3)nc12 | 6 µM
COc1ccc(-c2nc3ccccc3c3nnc(SCc4ncc(C)c(OC)c4C)n23)cc1 | 1.4 µM

Further lines, results first:

IC50 | SMILES
68 µM | Cc1ccc(-n2c(SCC(=O)N3CC(=O)Nc4ccccc43)nnc2-c2cccc(C)c2)cc1
67.2 µM | Cc1cccc(-c2nnc(SCC(=O)c3ccc(O)cc3O)n2-c2ccccc2)c1
25.2 µM | CCCSc1nnc(N2C(=O)C(O)=C(C(=O)c3ccco3)C2c2ccccc2F)s1 (stereo not drawn)
17.4 µM | CCOC(=O)C1CCCN(C(=O)c2cc(-c3ccc(Cl)cc3)nc3ccccc23)C1 (stereo not drawn)
8 µM | Cc1n[nH]c(O)c1C(c1cccc(OCc2ccc(F)cc2)c1)c1c(O)n[nH]c1C
7 µM | COc1ccc(C2CCCN2CC(=O)Nc2ccccc2-c2ccccc2)cc1 (stereo not drawn)
5.7 µM | COc1cc2c(=O)c(C(=O)c3ccc(C)c(C)c3)cn(Cc3ccc(F)cc3)c2cc1OC
5.2 µM | CCCCN1C(=O)c2[nH]nc(-c3ccccc3O)c2C1c1ccc(OCC)cc1 (stereo not drawn)
2.2 µM | COc1ccc(-c2cc(C(F)F)n3ncc(C(=O)Nc4cc(Cl)ccc4O)c3n2)cc1

test system: HepG2; experiment: Antiproliferative activity against human HepG2 cells after 72 hrs by MTT assay; type: functional, cell-based; conditions: HepG2, 72 h

SMILES | IC50
COc1cc2c(c(OC)c1OC)-c1ccc(OC)c(=O)cc1[C@@H](NC(C)=O)CC2 [COLCHICINE] | 0.042 µM
NC(=O)C1CCN(c2nc(CSc3ccccc3)nc3sc4c(c23)CCCC4)CC1 | 52.5 µM
Cc1ccc(NC(=O)Cn2c(C(F)(F)F)nc3ccccc32)c(-c2nc(C3CC3)n[nH]2)c1 | 38.9 µM
CCc1cccc(NC(=O)c2cnn3c(C(F)F)cc(-c4ccc(C)cc4)nc23)c1 | > 100 µM
O=C(Cn1cc(CNC2(c3ccccc3F)CCCC2)c2ccccc21)NC1CC1 | > 100 µM
CSc1ccccc1NC(=O)c1cnn2c(C(F)F)cc(-c3ccc(C)cc3)nc12 | 100 µM
COc1ccc(-c2nc3ccccc3c3nnc(SCc4ncc(C)c(OC)c4C)n23)cc1 | > 100 µM

More lines, now with the values ahead:

IC50 | SMILES
> 100 µM | Cc1ccc(-n2c(SCC(=O)N3CC(=O)Nc4ccccc43)nnc2-c2cccc(C)c2)cc1
33.1 µM | Cc1cccc(-c2nnc(SCC(=O)c3ccc(O)cc3O)n2-c2ccccc2)c1
> 100 µM | CCCSc1nnc(N2C(=O)C(O)=C(C(=O)c3ccco3)C2c2ccccc2F)s1 (stereo not drawn)
100 µM | CCOC(=O)C1CCCN(C(=O)c2cc(-c3ccc(Cl)cc3)nc3ccccc23)C1 (stereo not drawn)
> 100 µM | Cc1n[nH]c(O)c1C(c1cccc(OCc2ccc(F)cc2)c1)c1c(O)n[nH]c1C
35.5 µM | COc1ccc(C2CCCN2CC(=O)Nc2ccccc2-c2ccccc2)cc1 (stereo not drawn)
72.4 µM | COc1cc2c(=O)c(C(=O)c3ccc(C)c(C)c3)cn(Cc3ccc(F)cc3)c2cc1OC
18.3 µM | CCCCN1C(=O)c2[nH]nc(-c3ccccc3O)c2C1c1ccc(OCC)cc1 (stereo not drawn)
> 100 µM | COc1ccc(-c2cc(C(F)F)n3ncc(C(=O)Nc4cc(Cl)ccc4O)c3n2)cc1

test system: HeLa; experiment: Antiproliferative activity against human HeLa cells after 72 hrs by MTT assay; type: functional, cell-based; conditions: not given

SMILES | IC50
NC(=O)C1CCN(c2nc(CSc3ccccc3)nc3sc4c(c23)CCCC4)CC1 | 45.7 µM
Cc1ccc(NC(=O)Cn2c(C(F)(F)F)nc3ccccc32)c(-c2nc(C3CC3)n[nH]2)c1 | 1.6 µM
CCc1cccc(NC(=O)c2cnn3c(C(F)F)cc(-c4ccc(C)cc4)nc23)c1 | 95.5 µM
O=C(Cn1cc(CNC2(c3ccccc3F)CCCC2)c2ccccc21)NC1CC1 | 52.5 µM
CSc1ccccc1NC(=O)c1cnn2c(C(F)F)cc(-c3ccc(C)cc3)nc12 | 95.5 µM
COc1ccc(-c2nc3ccccc3c3nnc(SCc4ncc(C)c(OC)c4C)n23)cc1 | 19 µM

Second part, the compound after the results:

IC50 | SMILES
83 µM | Cc1ccc(-n2c(SCC(=O)N3CC(=O)Nc4ccccc43)nnc2-c2cccc(C)c2)cc1
16 µM | Cc1cccc(-c2nnc(SCC(=O)c3ccc(O)cc3O)n2-c2ccccc2)c1
55 µM | CCCSc1nnc(N2C(=O)C(O)=C(C(=O)c3ccco3)C2c2ccccc2F)s1 (stereo not drawn)
54.9 µM | CCOC(=O)C1CCCN(C(=O)c2cc(-c3ccc(Cl)cc3)nc3ccccc23)C1 (stereo not drawn)
23.9 µM | Cc1n[nH]c(O)c1C(c1cccc(OCc2ccc(F)cc2)c1)c1c(O)n[nH]c1C
20.8 µM | COc1ccc(C2CCCN2CC(=O)Nc2ccccc2-c2ccccc2)cc1 (stereo not drawn)
36.3 µM | COc1cc2c(=O)c(C(=O)c3ccc(C)c(C)c3)cn(Cc3ccc(F)cc3)c2cc1OC
21 µM | CCCCN1C(=O)c2[nH]nc(-c3ccccc3O)c2C1c1ccc(OCC)cc1 (stereo not drawn)
74 µM | COc1ccc(-c2cc(C(F)F)n3ncc(C(=O)Nc4cc(Cl)ccc4O)c3n2)cc1

test system: SH-SY5Y; experiment: Antiproliferative activity against human SH-SY5Y cells after 72 hrs by MTT assay; type: functional, cell-based; conditions: not given

SMILES | IC50
NC(=O)C1CCN(c2nc(CSc3ccccc3)nc3sc4c(c23)CCCC4)CC1 | 11.5 µM
Cc1ccc(NC(=O)Cn2c(C(F)(F)F)nc3ccccc32)c(-c2nc(C3CC3)n[nH]2)c1 | 0.9 µM
CCc1cccc(NC(=O)c2cnn3c(C(F)F)cc(-c4ccc(C)cc4)nc23)c1 | 100 µM
O=C(Cn1cc(CNC2(c3ccccc3F)CCCC2)c2ccccc21)NC1CC1 | > 100 µM
CSc1ccccc1NC(=O)c1cnn2c(C(F)F)cc(-c3ccc(C)cc3)nc12 | 57.5 µM
COc1ccc(-c2nc3ccccc3c3nnc(SCc4ncc(C)c(OC)c4C)n23)cc1 | 66 µM

Now from value to compound:

IC50 | SMILES
72.4 µM | Cc1ccc(-n2c(SCC(=O)N3CC(=O)Nc4ccccc43)nnc2-c2cccc(C)c2)cc1
12.7 µM | Cc1cccc(-c2nnc(SCC(=O)c3ccc(O)cc3O)n2-c2ccccc2)c1
10.3 µM | CCCSc1nnc(N2C(=O)C(O)=C(C(=O)c3ccco3)C2c2ccccc2F)s1 (stereo not drawn)
38 µM | CCOC(=O)C1CCCN(C(=O)c2cc(-c3ccc(Cl)cc3)nc3ccccc23)C1 (stereo not drawn)
43.7 µM | Cc1n[nH]c(O)c1C(c1cccc(OCc2ccc(F)cc2)c1)c1c(O)n[nH]c1C
8.7 µM | COc1ccc(C2CCCN2CC(=O)Nc2ccccc2-c2ccccc2)cc1 (stereo not drawn)
25.1 µM | COc1cc2c(=O)c(C(=O)c3ccc(C)c(C)c3)cn(Cc3ccc(F)cc3)c2cc1OC
22.5 µM | CCCCN1C(=O)c2[nH]nc(-c3ccccc3O)c2C1c1ccc(OCC)cc1 (stereo not drawn)
40 µM | COc1ccc(-c2cc(C(F)F)n3ncc(C(=O)Nc4cc(Cl)ccc4O)c3n2)cc1

species: Sus scrofa; experiment: Inhibition of tubulin polymerization in porcine brain assessed as disruption of microtubule organization after 1 hr by fluorescence polarization assay; conditions: not given

SMILES | inhibition
NC(=O)C1CCN(c2nc(CSc3ccccc3)nc3sc4c(c23)CCCC4)CC1 | Dose-dependent effect
Cc1ccc(NC(=O)Cn2c(C(F)(F)F)nc3ccccc32)c(-c2nc(C3CC3)n[nH]2)c1 | Dose-dependent effect
CCc1cccc(NC(=O)c2cnn3c(C(F)F)cc(-c4ccc(C)cc4)nc23)c1 | Dose-dependent effect
O=C(Cn1cc(CNC2(c3ccccc3F)CCCC2)c2ccccc21)NC1CC1 | Dose-dependent effect
CSc1ccccc1NC(=O)c1cnn2c(C(F)F)cc(-c3ccc(C)cc3)nc12 | Dose-dependent effect
COc1ccc(-c2nc3ccccc3c3nnc(SCc4ncc(C)c(OC)c4C)n23)cc1 | Dose-dependent effect

Now from value to compound:

inhibition | SMILES
Dose-dependent effect | Cc1ccc(-n2c(SCC(=O)N3CC(=O)Nc4ccccc43)nnc2-c2cccc(C)c2)cc1
Dose-dependent effect | Cc1cccc(-c2nnc(SCC(=O)c3ccc(O)cc3O)n2-c2ccccc2)c1
Dose-dependent effect | CCCSc1nnc(N2C(=O)C(O)=C(C(=O)c3ccco3)C2c2ccccc2F)s1 (stereo not drawn)
Dose-dependent effect | CCOC(=O)C1CCCN(C(=O)c2cc(-c3ccc(Cl)cc3)nc3ccccc23)C1 (stereo not drawn)
Dose-dependent effect | Cc1n[nH]c(O)c1C(c1cccc(OCc2ccc(F)cc2)c1)c1c(O)n[nH]c1C
Dose-dependent effect | COc1ccc(C2CCCN2CC(=O)Nc2ccccc2-c2ccccc2)cc1 (stereo not drawn)
Dose-dependent effect | COc1cc2c(=O)c(C(=O)c3ccc(C)c(C)c3)cn(Cc3ccc(F)cc3)c2cc1OC
Dose-dependent effect | CCCCN1C(=O)c2[nH]nc(-c3ccccc3O)c2C1c1ccc(OCC)cc1 (stereo not drawn)
Dose-dependent effect | COc1ccc(-c2cc(C(F)F)n3ncc(C(=O)Nc4cc(Cl)ccc4O)c3n2)cc1

test system: not listed separately; experiment: Apparent permeability from apical to basolateral side in MDCK2-MDR1 cells at 75 uM after 2 hrs UV-visible spectroscopy; type: ADME, cell-based, Canis lupus familiaris; conditions: dog, MDCK-MDR1

Papp A→B at 2 h, 75 µM | SMILES
45 ×10⁻⁶ cm/s | NC(=O)C1CCN(c2nc(CSc3ccccc3)nc3sc4c(c23)CCCC4)CC1
22 ×10⁻⁶ cm/s | Cc1cccc(-c2nnc(SCC(=O)c3ccc(O)cc3O)n2-c2ccccc2)c1
63 ×10⁻⁶ cm/s | CCCCN1C(=O)c2[nH]nc(-c3ccccc3O)c2C1c1ccc(OCC)cc1 (stereo not drawn)
18 ×10⁻⁶ cm/s | COc1ccc(-c2cc(C(F)F)n3ncc(C(=O)Nc4cc(Cl)ccc4O)c3n2)cc1

test system: not listed separately; experiment: Apparent permeability from basolateral to apical side in MDCK2-MDR1 cells at 75 uM after 2 hrs UV-visible spectroscopy; type: ADME, cell-based, Canis lupus familiaris; conditions: dog, MDCK-MDR1

Papp B→A at 2 h, 75 µM | SMILES
82 ×10⁻⁶ cm/s | NC(=O)C1CCN(c2nc(CSc3ccccc3)nc3sc4c(c23)CCCC4)CC1
13 ×10⁻⁶ cm/s | Cc1cccc(-c2nnc(SCC(=O)c3ccc(O)cc3O)n2-c2ccccc2)c1
55 ×10⁻⁶ cm/s | CCCCN1C(=O)c2[nH]nc(-c3ccccc3O)c2C1c1ccc(OCC)cc1 (stereo not drawn)
21 ×10⁻⁶ cm/s | COc1ccc(-c2cc(C(F)F)n3ncc(C(=O)Nc4cc(Cl)ccc4O)c3n2)cc1

test system: not listed separately; experiment: Efflux ratio of apparent permeability from basolateral to apical over apical to basolateral side in MDCK2-MDR1 cells at 75 uM after 2 hrs by UV-visible spectroscopy; type: ADME, cell-based, Canis lupus familiaris; conditions: dog, MDCK-MDR1

efflux ratio at 2 h, 75 µM | SMILES
1.82 | NC(=O)C1CCN(c2nc(CSc3ccccc3)nc3sc4c(c23)CCCC4)CC1
0.59 | Cc1cccc(-c2nnc(SCC(=O)c3ccc(O)cc3O)n2-c2ccccc2)c1
0.87 | CCCCN1C(=O)c2[nH]nc(-c3ccccc3O)c2C1c1ccc(OCC)cc1 (stereo not drawn)
1.16 | COc1ccc(-c2cc(C(F)F)n3ncc(C(=O)Nc4cc(Cl)ccc4O)c3n2)cc1
